This note sets out measurements from patent publication US11168087B2, “Substituted imidazo[1,2-b]pyridazines, substituted imidazo[1,5-b]pyridazines, related compounds, and their use in the treatment of medical disorders” (BIAL—R&D Investments, S.A., priority 2016, dated 2021).

This assay concerns the target T1, glucocerebrosidase (Gcase) (Homo sapiens, UniProt P04062).
T1 construct: micellar solution containing 10 nM GCase and 100 nM saposin C
T1 sequence (P04062 40-536): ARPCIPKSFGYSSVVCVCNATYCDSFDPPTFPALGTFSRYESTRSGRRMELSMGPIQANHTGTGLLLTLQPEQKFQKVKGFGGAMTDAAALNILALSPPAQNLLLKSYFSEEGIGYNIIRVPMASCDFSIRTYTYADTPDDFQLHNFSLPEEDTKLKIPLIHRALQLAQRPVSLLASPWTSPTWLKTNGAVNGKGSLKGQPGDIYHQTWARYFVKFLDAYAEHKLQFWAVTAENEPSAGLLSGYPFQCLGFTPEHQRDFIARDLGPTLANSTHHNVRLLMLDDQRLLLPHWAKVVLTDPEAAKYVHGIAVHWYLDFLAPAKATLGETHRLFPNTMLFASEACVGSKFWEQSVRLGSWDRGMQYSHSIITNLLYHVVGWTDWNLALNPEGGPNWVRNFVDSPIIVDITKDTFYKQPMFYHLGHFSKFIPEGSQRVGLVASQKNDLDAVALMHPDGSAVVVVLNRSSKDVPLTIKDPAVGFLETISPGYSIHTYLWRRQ
Kind of assay: Glucocerebrosidase (Gcase) activation assay, 4-methylumbelliferyl-beta-D-glucopyranoside substrate, with saposin C. It counts as biochemical. The settings on record: 0.25 h; for activation at 0.1 µM: read-out: Percent Gcase Activation 0.1 μM Test Compound; for activation at 1 µM: read-out: Percent Gcase Activation 1 μM Test Compound. In outline: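 Human GCase (10 nM) with 100 nM saposin C in Triton X-100/phosphatidylserine micelles, citrate-phosphate pH 4.7, preincubated with compound 30 min RT; 2 mM 4-MU-β-glucoside (substrate solution) added, 15 min RT, stopped with glycine pH 12.5, fluorescence 365/440 nm. Screened at 1.0 and 0.1 μM; 8-point curves from 5 μM top.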

On to `Cc1ccc(-c2cc(C)c3ncc(C(=O)N[C@H](C4CC4)C(F)(F)F)n3n2)cn1` [(R)-6-(6-Methylpyridin-3-yl)-N-(1-cyclopropyl-2,2,2-trifluoroethyl)-8-methylimidazo[1,2-b]pyridazine-3-carboxamide], for which the activation at 0.1 µM lay in the range of 5 to 20% and the activation at 1 µM is over 20%.
Turning to `Cc1cc(-c2cccc(F)c2)nn2c(C(=O)N[C@H](C3CC3)C(F)(F)F)ncc12` [(R)—N-(1-Cyclopropyl-2,2,2-trifluoroethyl)-2-(3-fluorophenyl)-4-methylimidazo[1,5-b]pyridazine-7-carboxamide], the activation at 0.1 µM is over 20% and the activation at 1 µM is over 20%.
As to `Cc1cc(-c2ccc3ncn(C)c3c2)nn2c(C(=O)N[C@H](C3CC3)C(F)(F)F)cnc12` [(R)—N-(1-Cyclopropyl-2,2,2-trifluoroethyl)-8-methyl-6-(1-methyl-1H-benzo[d]imidazol-6-yl)imidazo[1,2-b]pyridazine-3-carboxamide], the activation at 0.1 µM was in the range of 5 to 20% and the activation at 1 µM is over 20%.
Consider `Cc1cc(-c2ccc(F)cc2C#N)nn2c(C(=O)N[C@@H](C3CC3)C(F)(F)F)ncc12` [(S)-2-(2-Cyano-4-fluorophenyl)-N-(1-cyclopropyl-2,2,2-trifluoroethyl)-4-methylimidazo[1,5-b]pyridazine-7-carboxamide], for which the activation at 0.1 µM was in the range of 5 to 20% and the activation at 1 µM is over 20%.
For `Cc1cc(-c2ccc(F)cc2C#N)nn2c(C(=O)N[C@@H](C)C3CC3)ncc12` [(S)-2-(2-Cyano-4-fluorophenyl)-N-(1-cyclopropylethyl)-4-methylimidazo[1,5-b]pyridazine-7-carboxamide], the activation at 0.1 µM was 5 to 20% and the activation at 1 µM was over 20%.
As to `Cc1cc(-c2cncc(Cl)c2)nn2c(C(=O)N[C@@H](C3CC3)C(F)(F)F)ncc12` [(S)-2-(5-Chloropyridin-3-yl)-N-(1-cyclopropyl-2,2,2-trifluoroethyl)-4-methylimidazo[1,5-b]pyridazine-7-carboxamide], the activation at 0.1 µM was in the range of 5 to 20% and the activation at 1 µM was over 20%.
In the case of `Cc1cc(-c2cccc(F)c2C#N)nn2c(C(=O)N[C@@H](C)C(F)(F)F)cnc12` [(S)-6-(2-Cyano-3-fluorophenyl)-8-methyl-N-(1,1,1-trifluoropropan-2-yl)imidazo[1,2-b]pyridazine-3-carboxamide], the activation at 0.1 µM was in the range of 5 to 20% and the activation at 1 µM was over 20%.
Consider `Cc1cc(-c2cccc(F)c2C#N)nn2c(C(=O)N[C@@H](C)C3CC3)cnc12` [(S)-6-(2-Cyano-3-fluorophenyl)-N-(1-cyclopropylethyl)-8-methylimidazo[1,2-b]pyridazine-3-carboxamide], for which the activation at 0.1 µM is over 20% and the activation at 1 µM is over 20%.
Turning to `Cc1cc(-c2cc(F)ccc2C#N)nn2c(C(=O)N[C@@H](C)C(F)(F)F)cnc12` [(S)-6-(2-Cyano-5-fluorophenyl)-8-methyl-N-(1,1,1-trifluoropropan-2-yl)imidazo[1,2-b]pyridazine-3-carboxamide], the activation at 0.1 µM lay within 5 to 20% and the activation at 1 µM is over 20%.
`Cc1cc(-c2cc(F)ccc2C#N)nn2c(C(=O)N[C@@H](C)C3CC3)cnc12` [(S)-6-(2-Cyano-5-fluorophenyl)-N-(1-cyclopropylethyl)-8-methylimidazo[1,2-b]pyridazine-3-carboxamide]: the activation at 0.1 µM was 5 to 20% and the activation at 1 µM is over 20%.
For `Cc1cc(-c2c(F)cccc2C#N)nn2c(C(=O)N[C@@H](C)C(F)(F)F)cnc12` [(S)-6-(2-Cyano-6-fluorophenyl)-8-methyl-N-(1,1,1-trifluoropropan-2-yl)imidazo[1,2-b]pyridazine-3-carboxamide], in that order: 5 to 20% and over 20%.
For `Cc1cc(C#N)c(-c2cc(C)c3ncc(C(=O)N[C@@H](C)C4CC4)n3n2)o1` [(S)-6-(3-Cyano-5-methylfuran-2-yl)-N-(1-cyclopropylethyl)-8-methylimidazo[1,2-b]pyridazine-3-carboxamide], the activation at 0.1 µM is over 20% and the activation at 1 µM was over 20%.
